Measurements reported in patent publication US9670244B2, “Oxysterol compounds and the hedgehog pathway” (THE REGENTS OF THE UNIVERSITY OF CALIFORNIA, priority 2006, dated 2017).
Where “and” joins values, the source holds several entries; their conditions need not be identical. Identical values can stand only once. Entries after “also recorded” stand apart in the source; their conditions may differ.

How the values were obtained:
[1] = tested on: Gli-dependent luciferase reporter; assay: Gli-dependent luciferase reporter (Gli-Luc) assay in M2 cells; type: cell-based, mouse; conditions: for Induction of Gli reporter activity: ShhN 200 ng/ml, oxysterols 5 μM, TO 1 or 5 μM, 48 hours; for Gli reporter activity (synthetic oxysterols, FIG. 10): M2-10B4 Marrow Stromal Cells
Protocol: (§1) Cells were plated into 24-well plates and transfected the next day with Gli-dependent firefly luciferase and Renilla luciferase vectors and where indicated, Smo or Ptch expression vectors. […] Cells were treated for 48 hours prior to assessing luciferase activity using the Dual Luciferase Reporter Assay System (Promega, Madison, Wis.) according to manufacturer's instructions. Experiments were performed in triplicate and error bars indicate one standard deviation.
To further examine Hh pathway activation by oxysterols, a reporter assay using a luciferase reporter driven by a multimerized Gli-responsive element (5′-[…]-3′) (SEQ ID NO:4) was used.

[2] = tested on: M2-10B4 marrow stromal cells; assay: Alkaline phosphatase activity assay in M2-10B4 marrow stromal cells; type: cell-based, mouse
Protocol: (§2) The cells used are the pluripotent M2 cells (M2-10B4) that we previously characterized for their ability to become osteoblastiic and adipocyte cells. […] These cells are derived from bone marrow, are easy to maintain and last for many passages in vitro. […] Among the markers of osteogenic differentiation that were assayed were alkaline phosphatase activity, osteocalcin mRNA expression and mineral formation in cultures of marrow stromal cells.
We tested the effect of the synthetic oxysterols, oxy-1 through oxy-15, on alkaline phosphatase activity in M2-10B4 marrow stromal cells. Cells were treated with the oxysterols for 4 days after which they were collected and analyzed by colorimetric assay for alkaline phosphatase activity.

[3] = tested on: M2-10B4 marrow stromal cells; assay: 45Ca incorporation (mineralization) assay in M2-10B4 marrow stromal cells; type: cell-based, mouse
Protocol: as §2
We tested the effect of oxysterols on mineralization in M2-10B4 marrow stromal cells. Cells were treated with the oxysterols for 14 days after which the amount of mineral formed in the cultures was quantified using a radioactive ^45Ca incorporation assay.

rat femur periosteum = assay: Rat periosteal femur model, bone formation scoring; type: in vivo; design: key to Bone formation Score, individual animal / Bone formation Score (radiograph scoring), individual animal: 4: Marked amount and contiguous on eriosteum; 3: Moderate amount and contiguous on eriosteum; 2: Small amount and contiguous on periosteum; 1: Small amount and small segments on periosteum; 0: None; conditions: for Bone formation score, Average / Bone formation score (radiograph scoring), Average: n=6
Protocol: Male SD rats were treated for two weeks with Oxy13 (or a control vehicle). The Oxy13 was delivered by an Alzet pump to the perioseum, in three doses or by daily injections. The treatment regimens were: two weeks treatment, n=6 per group, vehicle and three Oxy 13 doses continuous and two doses daily injection; and four weeks treatment, vehicle and two Oxy 13 doses, n=6/group. The bone in-growth endpoints that were evaluated were microradiography, histomorphometry and blinded, randomized visual scoring.

Gli-1 and Ptch mRNA = assay: Q-RT-PCR of hedgehog pathway genes in M2 cells; type: cell-based, mouse; conditions: for Inhibition of oxysterol-induced Gli-1 and Ptch mRNA expression: M2 cells, SS 24 hours, pretreatment or co-treatment with agent
Protocol: Q-RT-PCR was performed using reverse-transcribed RNA isolated from M2 cells using phenol/chloroform method. PCR reactions were performed using iQ SYBR Green Supermix and an iCycler RT-PCR Detection System (BIO-RAD Laboratories, Hercules, Calif.). Primer sequences for Gli-1, Gli-2, Gli-3, Shh and Ihh were kindly provided by Dr. Fanxin Long (Washington University, St. Louis, Mo.). Ptch and Smo primer sequences are available upon request. Q-RT-PCR data were normalized to cyclophilin expression and relative expression levels were calculated using the […] method (Livak et al. (2001) Methods 25, 402-408).

pMARCKS, pPKA, pCREB = assay: Western blotting of phosphorylated proteins in M2 cell lysates; type: cell-based, mouse; conditions: SS 5 μM 10 min to 48 hours; PMA 30 min
Protocol: After treatments, cells were lysed in lysis buffer, protein concentrations determined using the Bio-Rad protein assay (Hercules, Calif.), and SDS-PAGE was performed, probing for native and phosphorylated proteins.
We previously reported that oxysterol-induced osteoblastic differentiation of cells is mediated via protein kinase C (PKC)- and protein kinase A (PKA)-dependent mechanisms. The role of these signaling pathways in regulating the different markers of osteoblastic differentiation appears to be both specific and overlapping. To begin elucidating the possible role of PKC and PKA in mediating oxysterol-induced Hh pathway activation, we examined the effect of PKC and PKA inhibitors on markers of Hh pathway activation. […] Similarly, oxysterol-induced Gli-1 and Ptch expression was inhibited in cells whose PKC stores were depleted following overnight pretreatment with 1 μM PMA (FIG. 6c,d). We next examined whether oxysterols induced PKC activation by assessing the levels of phosphorylated MARCKS (pMARCKS), a PKC substrate, by Western blotting.
To examine the possible role of PKA in oxysterol-induced Hh pathway activation, the effect of PKA inhibitor, H-89, previously found to inhibit the induction of some, but not all, markers of osteoblastic differentiation, on oxysterol-induced Gli-1 and Ptch mRNA expression was assessed by Q-RT-PCR.

osteocalcin (OCN) mRNA = conditions: 4 μM pre-treatment, 5 μM SS 8 days
Protocol: (§3) Colorimetric alkaline phosphatase activity assay on whole cell extracts and Northern blotting for OCN and 18S rRNA were performed by conventional procedures. Gene expression was quantified using a Storm840 phosphorimager and ImageQuant software (Amersham, Piscataway, N.J.).

[4] = tested on: Gli-dependent luciferase reporter; conditions: 4 μM pre-treatment
Protocol: as §1

[5] = tested on: Runx2 DNA binding activity
Protocol: Oligonucleotides were annealed to their complementary sequences by boiling and cooling. The probes were end-labeled with γ^32P-ATP using polynucleotide kinase and column purified. […] Nuclear extracts (10 μg) were incubated in binding buffer (10 mM Tris pH 7.5, 100 mM NaCl, 1 mM DTT, 1 mM EDTA, 4% glycerol), 1 μg poly(dIdC) and 0.2 ng of labeled probe for 20 minutes at room temperature, and complexes were resolved on a cooled, 6% acrylamide 1×TBE gel. Subsequently, gels were dried and exposed to film.

Smo−/− MEFs = assay: Alkaline phosphatase assay in Smo-/- mouse embryonic fibroblasts; type: cell-based; conditions: two days; BMP-7 50 ng/ml
Protocol: as §3

[6] = Mus musculus, M210B4, 96 h, read-out: Fold Induction over Control Untreated Cells (alkaline phosphatase activity)
[7] = Mus musculus, M210B4, 336 h, read-out: 45Ca Incorporation (fold induction over control untreated cells)

## CC(C)CCC[C@@H](C)[C@H]1CC[C@H]2[C@@H]3C(=O)C=C4C[C@@H](O)CC[C@]4(C)[C@H]3CC[C@]12C [7-ketocholesterol, reference compound]
[1]
  Induction of Gli reporter activity: not observed

## CC(C)CCC[C@@H](C)[C@H]1CC[C@H]2[C@@H]3[C@H](O)C=C4C[C@@H](O)CC[C@]4(C)[C@H]3CC[C@]12C [7-α-hydroxycholesterol, reference compound]
[1]
  Induction of Gli reporter activity: not observed

## Cc1cccc(C[C@](C)(O)C2CCC3C4CC=C5C[C@@H](O)CC[C@]5(C)C4CC[C@@]32C)c1 (some centres unmarked) [Oxy11]
[2]; 2.5 μM, 4 days
  Fold Induction over Control Untreated Cells (alkaline phosphatase activity): 6 fold
[1]
  Gli reporter activity (synthetic oxysterols, FIG. 10): stimulate the Gli1 reporter; also recorded: stimulation of Gli reporter activity

## CC(C)CCCC[C@](C)(O)[C@H]1CC[C@H]2[C@@H]3CC=C4C[C@@H](O)CC[C@]4(C)[C@H]3CC[C@@]21C [Oxy12, (3S,8S,9S,10R,13S,14S,17S)-2,3,4,7,8,9,10,11,12,13,14,15,16,17-tetradecahydro-17-((S)-2-hydroxy-7-methyloctan-2-yl)-10,13-dimethyl-1H-cyclopenta[a]phenanthren-3-ol]
[2]; [6]
  fold induction at 5 µM: 22
  fold induction at 10 µM: 80
[3]; [7]
  fold induction at 5 µM: 2
  fold induction at 10 µM: 4
  fold induction at 15 µM: 7
[1]
  Gli reporter activity (synthetic oxysterols, FIG. 10): stimulate the Gli1 reporter; also recorded: stimulation of Gli reporter activity

## C=C(C)CCC[C@](C)(O)[C@H]1CC[C@H]2[C@@H]3CC=C4C[C@@H](O)CC[C@]4(C)[C@H]3CC[C@@]21C [Oxy13, (3S,8S,9S,10R,13S,14S,17S)-2,3,4,7,8,9,10,11,12,13,14,15,16,17-tetradecahydro-17-((S)-2-hydroxy-6-methylhept-6-en-2-yl)-10,13-dimethyl-1H-cyclopenta[a]phenanthren-3-ol]
[2]; [6]
  fold induction at 2.5 µM: 200
  fold induction at 5 µM: 334
[3]; [7]
  fold induction at 5 µM: 5
  fold induction at 10 µM: 34
  fold induction at 15 µM: 38
Rat femur periosteum; Pump 2 wk 0.167 mg/ml
  Bone formation Score, individual animal: 3
  Bone formation score, Average: 3.00
Rat femur periosteum; Pump 2 wk 1.67 mg/ml
  Bone formation Score, individual animal: 1 and 4 (3×) and 3 and 2
  Bone formation score, Average: 3.00
Rat femur periosteum; Pump 4 wk 0.167 mg/ml
  Bone formation Score (radiograph scoring), individual animal: 0 and 2 (3×) and 3 (2×)
  Bone formation score (radiograph scoring), Average: 2.00
Rat femur periosteum; Pump 4 wk 1.67 mg/ml
  Bone formation Score (radiograph scoring), individual animal: 2 (2×) and 3 and 1 (2×) and 0
  Bone formation score (radiograph scoring), Average: 1.50
[1]
  Gli reporter activity (synthetic oxysterols, FIG. 10): stimulate the Gli1 reporter; also recorded: stimulation of Gli reporter activity

## CC(C)CCC[C@](C)(O)[C@H]1CC[C@H]2[C@@H]3CC=C4C[C@@H](O)CC[C@]4(C)[C@H]3CC[C@@]21C [Oxy 20S, 20(S)-hydroxycholesterol, reference compound]
[3]; [7]
  fold induction at 7.5 µM: 4

## O=S(=O)(NCCNC/C=C/c1ccc(Br)cc1)c1cccc2cnccc12 [Oxy H-89, H-89]
Gli-1 and Ptch mRNA
  Inhibition of oxysterol-induced Gli-1 and Ptch mRNA expression: did not inhibit

## CCCCCCCCCCCCCC(=O)O[C@@H]1[C@@H](C)[C@@]2(O)[C@@H](C=C(CO)C[C@]3(O)C(=O)C(C)=C[C@@H]23)[C@@H]2C(C)(C)[C@]12OC(C)=O [PMA, Phorbol 12-Myristate 13-Acetate]
Gli-1 and Ptch mRNA
  Inhibition of oxysterol-induced Gli-1 and Ptch mRNA expression: inhibited
pMARCKS, pPKA, pCREB
  Phosphorylated MARCKS (pMARCKS) levels: clearly induced MARCKS phosphorylation

## O=S(=O)(c1ccccc1)N(CC(F)(F)F)c1ccc(C(O)(C(F)(F)F)C(F)(F)F)cc1 [TO-901317, reference compound]
[1]
  Induction of Gli reporter activity: no activation

## CC1=C2C[C@H]3[C@@H](CC=C4C[C@@H](O)CC[C@@]43C)[C@@H]2CC[C@]12O[C@@H]1C[C@H](C)CN[C@H]1[C@H]2C [cyclopamine, reference compound]
[2]; M2 cells, 5 μM SS, 3 days
  Inhibition of SS-induced ALP activity: significantly inhibited
[3]; 4 μM pre-treatment, 5 μM SS 14 days
  Inhibition of oxysterol-increased mineralization: inhibited
[1]; pre-treatment 2 hours, 4 μM
  Inhibition of oxysterol- or ShhN-induced Gli-luc activity: inhibited
Osteocalcin (OCN) mRNA
  Inhibition of oxysterol-induced OCN expression: inhibited
[4]
  Inhibition of oxysterol-induced Gli-luc activity in C3H10T½ cells: inhibited
[5]
  Inhibition of oxysterol-stimulated Runx2 DNA binding activity: completely inhibited

## CC(=O)c1c(O)c(C)c(O)c(Cc2c(O)c3c(c(C(=O)/C=C/c4ccccc4)c2O)OC(C)(C)C=C3)c1O [rottlerin]
Gli-1 and Ptch mRNA
  Inhibition of oxysterol-induced Gli-1 and Ptch mRNA expression: dose-dependently inhibited
Gli-1 and Ptch mRNA; all concentrations tested, without SS
  Effect of agent alone on Gli-1 and Ptch gene expression: no significant effect on gene expression

B1: BMB-7: bone morphogenetic protein 7 (protein, UniProt P18075 293-431, looked up)
Bone morphogenetic protein 7: STGSKQRSQNRSKTPKNQEALRMANVAENSSSDQRQACKKHELYVSFRDLGWQDWIIAPEGYAAYYCEGECAFPLNSYMNATNHAIVQTLVHFINPETVPKPCCAPTQLNAISVLYFDDSSNVILKKYRNMVVRACGCH
Smo−/− MEFs
  ALP activity / osteoblastic differentiation in Smo−/− MEFs: did induce ALP activity
